Results taken from patent EP3300733A1, “SUBSTANCE SELECTED AMONG IRINOTECAN, AN IRINOTECAN ACTIVE METABOLITE, 5-FLUORO-URACILE, A PHARMACEUTICAL SALT THEREOF AND A MIXTURE THEREOF, FOR USE IN THE TREATMENT OF FIBROSIS” (Centre Hospitalier Universitaire de Bordeaux, priority 2016, dated 2018).
Like-named read-outs stand apart in the source and are kept apart here.

Columns and labels:
TIMP1 mRNA = assay: mRNA expression of fibrosis genes in dermal fibroblasts (qPCR): TIMP1; type: cell-based; conditions: Homo sapiens, Fibroblast, read-out: average inhibition of TIMP1 mRNA levels
Experimental: (§1) Dermal fibroblasts were obtained from clinically affected skin of systemic sclerosis (SSC) patients and from healthy donors (H). The fibroblasts were grown in DMEM medium containing 2mM of L-glutamine supplemented with 10% foetal bovine serum (FCS) and penicillin/streptomycin antibiotics.
(§2) Dermal fibroblasts were plated in DMEM 10% FCS in 24-well plates. 24h before the experiment, medium was switched to DMEM 0% FCS. […] Supernatants were removed and plates were freezed at -80°c. Fibroblasts RNA from each well-plate were extracted with NucleoSpin® RNA Plus kit (Macherey-Nagel) according to manufacter's instructions. Triplicates were done and RNA from triplicates were pooled together. The quantity and quality of RNA were evaluated by capillary electrophoresis (Bioanalyzer 2100, Agilent).
(§3) RNA was used for cDNA synthesis using the Transcriptor Reverse Transcriptase kit (Roche). qPCR reactions were run on a Light Cycler (Roche Molecular Systems Inc.) according to manufacter's instructions. The relative gene expression levels of COL1A1, COL1A2, MMP1, TIMP1, CCL2 and ACTA2 were calculated using the ΔΔCt method. Target mRNA levels were normalized to GAPDH.
(§4) Expression of the genes in the different treated conditions was presented as fold change compared with the gene expression of the same non-treated fibroblasts arbitrary fixed at 100%.

procollagen I [1] = assay: effect of a combination of low SN38 and 5FU doses on procollagen I release (ELISA); type: cell-based, human; conditions: 5FU 1 µg/ml alone (condition B), 48h; patient SSC2, SSC3 or H2
Experimental: Dermal fibroblasts were plated in DMEM 10% FCS supplemented with 20µg/mL of vitamin C in 96-well plates. 24h before the experiment, medium was switched to DMEM 0% FCS supplemented with 20µg/mL of vitamin C. Cells were treated for 48h with SN38 (0.006 µg/mL), 5FU (1 µg/mL) or a combination (SN38 0.006 µg/mL and 5FU 1 µg/mL) in DMEM 0% FCS supplemented with 20µg/mL of vitamin C. Supernatants were collected to evaluate the procollagen I release level by ELISA kit (ref MK101, supplier Takara) according to manufacter's instructions. Triplicates were done. The level of procollagen I release was presented as fold change compared with the procollagen I release by the same non-treated fibroblasts arbitrary fixed at 100%.

dermal fibroblasts = assay: cytotoxicity on the fibroblasts (data not shown); type: cell-based, human
CCL2 mRNA = assay: mRNA expression of fibrosis genes in dermal fibroblasts (qPCR): CCL2; type: cell-based; conditions: Homo sapiens, Fibroblast, 24h, SSc and healthy fibroblasts, vs non-treated, read-out: average inhibition of CCL2 mRNA levels
Experimental: as §1, §2, §3, §4

MMP1 mRNA = assay: mRNA expression of fibrosis genes in dermal fibroblasts (qPCR): MMP1; type: cell-based; conditions: Homo sapiens, Fibroblast, read-out: average inhibition of MMP1 mRNA levels
Experimental: as §1, §2, §3, §4

COL1A2 mRNA = assay: mRNA expression of fibrosis genes in dermal fibroblasts (qPCR): COL1A2; type: cell-based; conditions: Homo sapiens, Fibroblast, read-out: average inhibition of COL1A2 mRNA levels
Experimental: as §1, §2, §3, §4

procollagen I [2] = assay: release of procollagen I protein by dermal fibroblasts (ELISA), dose response; type: cell-based, human; conditions: 48h, both cell types (SSC and healthy fibroblasts), vs non-treated
Experimental: as §1
Dermal fibroblasts were plated in DMEM 10% FCS supplemented with 20µg/mL of vitamin C in 96-well plates. 24h before the experiment, medium was switched to DMEM 0% FCS supplemented with 20µg/mL of vitamin C. […] Supernatants were collected to evaluate the procollagen I release level by ELISA kit (ref MK101, supplier Takara) according to manufacter's instructions. Triplicates were done. The level of procollagen I release was presented as fold change compared with the procollagen I release by the same non-treated fibroblasts arbitrary fixed at 100%.

COL1A1 mRNA = assay: mRNA expression of fibrosis genes in dermal fibroblasts (qPCR): COL1A1; type: cell-based; conditions: Homo sapiens, Fibroblast, read-out: average inhibition of COL1A1 mRNA levels
Experimental: as §1, §2, §3, §4

[3] = tested on: idiopathic pulmonary fibrosis; conditions: on one year, 72 week phase III trial; cited from earlier work
ACTA2 mRNA = assay: mRNA expression of fibrosis genes in dermal fibroblasts (qPCR): ACTA2; type: cell-based; conditions: Homo sapiens, Fibroblast, read-out: average inhibition of ACTA2 mRNA levels
Experimental: as §1, §2, §3, §4

[4] = tested on: diffuse cutaneous systemic sclerosis; conditions: cited from earlier work
diffuse scleroderma = assay: clinical case: patient with diffuse scleroderma treated with chemotherapy; type: in vivo, human; conditions: methotrexate 7.5 mg to 10 mg per week for 5 years before admission
Description: A person was referred for fever and abdominal pain. Their medical history was mainly represented by a systemic scleroderma diagnosed 20 years before and with digestive, cutaneous and rheumatologic involvement. […] Blood test found anti topo-I antibodies to high level (141 IU/mL, normal range 0-29). […] The modified Rodnan score was 24/51.
Then, it was proposed to the patient 4 cycles of chemotherapy FOLFORINOX followed by rectal surgery.
The patient received 4 cycles of FOLFORINOX (oxaliplatine 85 mg/m^2, irinotecan 180 mg/m^2, 5-fluoro-uracil 400 mg/m^2 flash then 2400 mg/m^2 the following 46 hours). Cycles of chemotherapy were administered every 14 days on January 13 and 27, and February 11 and 25, 2014.
Then, the patient had surgery and according to post-surgical piece, it was realized 6 cycles of FOLFOX (folinic acid, oxaliplatine and 5-fluorouracil) with no new improvement during these last 6 cycles.

[5] = 5FU 384 µM (highest dose), 24h, SSc and healthy fibroblasts, vs non-treated
[6] = all the doses used in the procollagen I release test (irinotecan 0.006-40 µg/ml, SN38 0.00006-0.6 µg/ml, 5FU 0.3-80 µg/ml)
[7] = control group (cyclophosphamide), share of patients
[8] = irinotecan 32 µM (highest dose), 24h, SSc and healthy fibroblasts, vs non-treated

Structure (SMILES): O=c1[nH]cc(F)c(=O)[nH]1 [5FU, 5-Fluoro-1H,3H-pyrimidine-2,4-dione]
- inhibition at 384 µM (TIMP1 mRNA; [5]): 15%
- procollagen I release (procollagen I [1]): not observed
- cytotoxic on the fibroblasts (dermal fibroblasts; 38.4 µM and 384 µM): not cytotoxic
- cytotoxic on the fibroblasts (dermal fibroblasts; [6]): not cytotoxic
- inhibition at 384 µM (CCL2 mRNA; 5FU 384 µM (highest dose)): 31%
- inhibition at 384 µM (MMP1 mRNA; [5]): 37%
- inhibition at 384 µM (COL1A2 mRNA; [5]): 12%
- release of procollagen I protein (procollagen I [2]; 80µg/mL): significantly decreased
- inhibition at 384 µM (COL1A1 mRNA; [5]): 17%

Structure (SMILES): Cc1ccc(=O)n(-c2ccccc2)c1 [Pirfenidone]
- reduce decline in lung function (forced vital capacity, FCV) [3]: 4.4%

Structure (SMILES): CCc1c2c(nc3ccc(O)cc13)-c1cc3c(c(=O)n1C2)COC(=O)[C@]3(O)CC [SN38, 7-Ethyl-10-hydroxy-camptothecin]
- inhibition at 1 µM (TIMP1 mRNA; 24 h): 22%
- cytotoxic on the fibroblasts (dermal fibroblasts; 0.1 µM and 1 µM): not cytotoxic
- cytotoxic on the fibroblasts (dermal fibroblasts; [6]): not cytotoxic
- inhibition at 1 µM (MMP1 mRNA; 24 h): 42%
- inhibition at 1 µM (COL1A2 mRNA; 24 h): 52%
- release of procollagen I protein (procollagen I [2]; 0.3 µg/mL): significantly decreased
- release of procollagen I protein (procollagen I [2]; 0.6 µg/mL): significantly decreased
- inhibition at 1 µM (ACTA2 mRNA; 24 h): 55%
- inhibition at 1 µM (COL1A1 mRNA; 24 h): 57.5%

Structure (SMILES): O=P1(N(CCCl)CCCl)NCCCO1 (stereo not shown) [cyclophosphamide]
- events, cumulative ([4]; control group (cyclophosphamide), at 2 years): 18.2%
- events, cumulative ([4]; control group (cyclophosphamide), at 4 years): 26%
- events ([4]; control group (cyclophosphamide), during the first year, no treatment-related deaths): 10.4%
- Grade 3 or 4 adverse events [4, 7]: 37.0%
- Viral infections [4, 7]: 1.3%
- events (deaths and irreversible organ failures) ([4]; control group (cyclophosphamide, n = 77), median follow-up of 5.8 years, 23 deaths and 8 irreversible organ failures): 31

Structure (SMILES): CCc1c2c(nc3ccc(OC(=O)N4CCC(N5CCCCC5)CC4)cc13)-c1cc3c(c(=O)n1C2)COC(=O)[C@]3(O)CC [irinotecan, (S)-4,11-diethyl-3,4,12,14-tetrahydro-4-hydroxy-3,14-dioxo1H-pyrano[3',4':6,7]-indolizino[1,2-b]quinolin-9-yl-[1,4'bipiperidine]-1'-carboxylate]
- cytotoxic on the fibroblasts (dermal fibroblasts; 3.2 µM and 32 µM): not cytotoxic
- cytotoxic on the fibroblasts (dermal fibroblasts; [6]): not cytotoxic
- inhibition at 32 µM (CCL2 mRNA; irinotecan 32 µM (highest dose)): 19%
- inhibition at 32 µM (MMP1 mRNA; [8]): 32%
- inhibition at 32 µM (COL1A2 mRNA; [8]): 22%
- release of procollagen I protein (procollagen I [2]; 40µg/mL): significantly decreased
- inhibition at 32 µM (ACTA2 mRNA; [8]): 33%
- inhibition at 32 µM (COL1A1 mRNA; [8]): 27%

Structure (SMILES): CN(Cc1cnc2nc(N)nc(N)c2n1)c1ccc(C(=O)N[C@@H](CCC(=O)O)C(=O)O)cc1 [methotrexate]
- impact on scleroderma evolution (diffuse scleroderma): without substantial impact
